Common to all, as to format: cell-based
In test [1] the test system is IL-6 in human monocyte cell line (THP-1 cells). As to the kind of experiment: IL-6 inhibition in LPS-stimulated THP-1 cells (HTRF). The note with it: IL-6 in LPS-stimulated THP-1 cells; for EC50: HTRF; for inhibition at 10 µM: read-out: percent inhibition in brackets beside EC50 >10 μM. Put shortly: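 THP-1 cells, serum-reduced (1% FBS) for 24 h, were preincubated with compound (10-point 1:3 series from 10 μM, 0.1% DMSO) for 2 h, then stimulated with 500 ng/mL LPS for 22 h at 37° C. IL-6 was read by HTRF (665/620 nm ratio) and normalized to DMSO. EC50 from four-parameter fit; % inhibition at 10 μM given if EC50 >10 μM.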
In general terms: TR-FRET usually uses a lanthanide donor and a delayed reading to cut background.

The subject of test [2] is SW480 colon cancer cells. Nature of the test: Cell viability assay (CellTiter-Blue), four days. Particulars: Homo sapiens, 96 h; for inhibition at 10 µM: read-out: percent inhibition at 10 μM (given for EC50 of >10 μM); for EC50: CellTiter-Blue cell viability. Put shortly:
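SW480 cells (~2×10^3 per well) were exposed to compound for four days at 37 °C/5% CO2, using 8-point 1:3 dilutions from 10 μM to 0.0045 μM in duplicate. Viability was read by resazurin reduction (CellTiter-Blue, ~3 h, Ex 560/Em 590 nm). EC50 came from non-linear regression; above 10 μM, percent inhibition at 10 μM is given.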
A general note: Alamar Blue is a resazurin reagent that responds to reducing activity.

The test system of test [3] is Primary human fibroblasts derived from IPF patients (LL29 cells) treated with TGF-β1. As to the kind of experiment: Inhibition of the fibrotic process: αSMA staining in TGF-β1 treated fibroblasts. Particulars: Fibroblast, 96 h, LL29 fibroblasts treated with TGF-β1, 4 days; for inhibition at 10 µM: read-out: percent inhibition in brackets beside EC50 >10 μM. Put shortly: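 LL29 cells plated in F12 with 1% FBS, compounds added as 11-point 1:2 series (10 μM to 1.87 nM, 0.1% DMSO), then TGF-β1 20 ng/mL; 4 days at 37 °C. Fixed, αSMA immunostained, imaged; SYTOX-positive cells excluded. % αSMA-positive cells normalized to TGF-β1 wells; EC50 by non-linear regression, or % inhibition at 10 μM.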

Bounds are passed on as bounds.

What is called EC50 is the concentration giving half of the maximal effect. Low values mean greater potency, high ones weaker potency. The inhibition is the relative decrease from the control value, in per cent. For `CN(C)CCNc1cc(F)cc(-c2nccc3[nH]c(-c4n[nH]c5ccc(-c6cncc(OCCN7CCCC7)c6)nc45)nc23)c1` [Compound 786, N^1-(3-Fluoro-5-(2-(5-(5-(2-(pyrrolidin-1-yl)ethoxy)pyridin-3-yl)-1H-pyrazolo[4,3-b]pyridin-3-yl)-1H-imidazo[4,5-c]pyridin-4-yl)-5phenyl)-N^2,N^2-dimethylethane-1,2-diamine], the values for the EC50 in test [1], in test [2] and in test [3] were 7.22 µM, greater than 10 µM and greater than 10 µM, respectively. The inhibition at 10 µM stood at 15.9% in test [2] and 0% in test [3].

Take `CCCCC(=O)Nc1cncc(-c2ccc3[nH]nc(-c4nc5c(-c6ccccn6)nccc5[nH]4)c3n2)c1` [Compound 159, N-(5-(3-(4-(Pyridin-2-yl)-1H-imidazo[4,5-c]pyridin-2-yl)-1H-pyrazolo[4,3-b]pyridin-5-yl)pyridin-3-yl)pentanamide]: the EC50 in test [1] was greater than 10 µM; in test [2] it was greater than 10 µM; in test [3] it was 4.04 µM. The inhibition at 10 µM in test [1] came out at 28.2%; in test [2] it was 5.7%.

Regarding `O=C(Nc1cncc(-c2ccc3[nH]nc(-c4nc5cnccc5[nH]4)c3n2)c1)C1CCCCC1` [Compound 275, N-(5-(3-(1H-Imidazo[4,5-c]pyridin-2-yl)-1H-pyrazolo[4,3-b]pyridin-5-yl)pyridin-3-yl)cyclohexanecarboxamide], the EC50 in test [1], in test [2] and in test [3] was greater than 10 µM each time. Further, the inhibition at 10 µM in test [1] was 31.5%; in test [2], 0%; in test [3] it was 28.8%.

On to `CCCCC(=O)Nc1cncc(-c2ccc3[nH]nc(-c4nc5c(-c6ccoc6)nccc5[nH]4)c3n2)c1` [Compound 327, N-(5-(3-(4-(Furan-3-yl)-1H-imidazo[4,5-c]pyridin-2-yl)-1H-pyrazolo[4,3-b]pyridin-5-yl)pyridin-3-yl)pentanamide], for which the EC50 in test [1], in test [2] and in test [3] was greater than 10 µM throughout. For the same molecule, the figures for the inhibition at 10 µM in test [1], in test [2] and in test [3] were 22.5%, 10.1% and 0%, respectively.

As for `Cc1ccc(-c2nccc3[nH]c(-c4n[nH]c5ccc(C6=CCNCC6)nc45)nc23)s1` [Compound 730, 3-(4-(5-Methylthiophen-2-yl)-1H-imidazo[4,5-c]pyridin-2-yl)-5-(1,2,3,6-tetrahydropyridin-4-yl)-1H-pyrazolo[4,3-b]pyridine], the EC50 in test [1] is greater than 10 µM; in test [2], 5.26 µM; in test [3], 6.17 µM. In addition, the inhibition at 10 µM in test [1] amounted to 29.5%.

In the case of `Fc1ccc(-c2nccc3[nH]c(-c4n[nH]c5ccc(-c6cncc(CN7CCCC7)c6)nc45)nc23)cc1` [Compound 42, 3-(4-(4-Fluorophenyl)-1H-imidazo[4,5-c]pyridin-2-yl)-5-(5-(pyrrolidin-1-ylmethyl)pyridin-3-yl)-1H-pyrazolo[4,3-b]pyridine], the EC50 in test [1] was greater than 10 µM; in test [2], 9.56 µM; in test [3] it was 2.87 µM. Moreover, the inhibition at 10 µM in test [1] turned out to be 23.3%.

For the molecule `CC(C)C(=O)Nc1cncc(-c2ccc3[nH]nc(-c4nc5c(-c6cccnc6)nccc5[nH]4)c3n2)c1` [Compound 93, N-(5-(3-(4-(Pyridin-3-yl)-1H-imidazo[4,5-c]pyridin-2-yl)-1H-pyrazolo[4,3-b]pyridin-5-yl)pyridin-3-yl)isobutyramide], the figures for the EC50 in test [1], in test [2] and in test [3] were greater than 10 µM, greater than 10 µM and 2.01 µM, respectively. The inhibition at 10 µM in test [1] was 25.1%; in test [2] it was 5.9%.

In the case of `Fc1ccc(-c2nccc3[nH]c(-c4n[nH]c5ccc(-c6cncnc6)nc45)nc23)cc1` [Compound 55, 3-(4-(4-Fluorophenyl)-1H-imidazo[4,5-c]pyridin-2-yl)-5-(pyrimidin-5-yl)-1H-pyrazolo[4,3-b]pyridine], the EC50 was greater than 10 µM in test [1], greater than 10 µM in test [2] and 2.18 µM in test [3]. Further, the inhibition at 10 µM came to 27.3% in test [1] and 15.1% in test [2].

With `CN(C)Cc1cncc(-c2ccc3[nH]nc(-c4nc5c(N6CCCCC6)nccc5[nH]4)c3n2)c1` [Compound 181, N,N-Dimethyl-1-(5-(3-(4-(piperidin-1-yl)-1H-imidazo[4,5-c]pyridin-2-yl)-1H-pyrazolo [4,3-b]pyridin-5-yl)pyridin-3-yl)methanamine], the results for the EC50 in test [1], in test [2] and in test [3] were greater than 10 µM, 4.69 µM and 4.05 µM, respectively. For the same molecule, the inhibition at 10 µM in test [1] was found to be 36.5%.

Consider `Cn1cc(-c2ccc3[nH]nc(-c4nc5c(-c6cc(F)cc(CNS(C)(=O)=O)c6)nccc5[nH]4)c3n2)cn1` [Compound 764, N-(3-Fluoro-5-(2-(5-(1-methyl-1H-pyrazol-4-yl)-1H-pyrazolo [4,3-b]pyridin-3-yl)-1H-imidazo[4,5-c]pyridin-4-yl)benzyl)methanesulfonamide], for which the results for the EC50 in test [1], in test [2] and in test [3] were greater than 10 µM, 5.88 µM and 1.06 µM, respectively. The inhibition at 10 µM in test [1] stood at 0%.

Turning to `Cc1ccncc1-c1ccc2[nH]nc(-c3nc4c(-c5ccsc5)nccc4[nH]3)c2n1` [Compound 285, 5-(4-Methylpyridin-3-yl)-3-(4-(thiophen-3-yl)-1H-imidazo[4,5-c]pyridin-2-yl)-1H-pyrazolo[4,3-b]pyridine], the EC50 amounted to 1.33 µM in test [1], 0.638 µM in test [2] and 0.493 µM in test [3].

As to `CN1CCN(c2nccc3[nH]c(-c4n[nH]c5ccc(-c6cnccn6)nc45)nc23)CC1` [Compound 648, 3-(4-(4-Methylpiperazin-1-yl)-1H-imidazo[4,5-c]pyridin-2-yl)-5-(pyrazin-2-yl)-1H-pyrazolo[4,3-b]pyridine], the figures for the EC50 in test [1], in test [2] and in test [3] were 0.998 µM, greater than 10 µM and 6.47 µM, respectively. Moreover, the inhibition at 10 µM in test [2] stood at 5.4%.

`CCC(=O)Nc1cncc(-c2ccc3[nH]nc(-c4nc5c(-c6cccs6)nccc5[nH]4)c3n2)c1` [Compound 337, N-(5-(3-(4-(Thiophen-2-yl)-1H-imidazo[4,5-c]pyridin-2-yl)-1H-pyrazolo [4,3-b]pyridin-5-yl)pyridin-3-yl)propionamide]: the figures for the concentration giving a half-maximal response (EC50) in test [1], in test [2] and in test [3] were greater than 10 µM, greater than 10 µM and 1.08 µM, respectively. Moreover, the values for the inhibition at 10 µM in test [1] and in test [2] were 0% and 39.4%, respectively.

`Cc1ncc(-c2ccc3[nH]nc(-c4nc5c(-c6ccoc6)nccc5[nH]4)c3n2)n1C` [Compound 685, 5-(1,2-Dimethyl-1H-imidazol-5-yl)-3-(4-(furan-3-yl)-1H-imidazo[4,5-c]pyridin-2-yl)-1H-pyrazolo[4,3-b]pyridine]: the figures for the EC50 in test [1], in test [2] and in test [3] were greater than 10 µM, 0.624 µM and 5.3 µM, respectively. Moreover, the inhibition at 10 µM in test [1] is 30.2%.

Regarding `Cn1cc(-c2ccc3[nH]nc(-c4nc5c(-c6cccs6)nccc5[nH]4)c3n2)cn1` [Compound 700, 5-(1-Methyl-1H-pyrazol-4-yl)-3-(4-(thiophen-2-yl)-1H-imidazo[4,5-c]pyridin-2-yl)-1H-pyrazolo[4,3-b]pyridine], the EC50 in test [1] was greater than 10 µM; in test [2], 0.775 µM; in test [3] it was 0.224 µM. Besides, the inhibition at 10 µM in test [1] stood at 0%.

With `Fc1cccc(-c2nccc3[nH]c(-c4n[nH]c5ccc(-c6cncc(CN7CCC(F)(F)C7)c6)nc45)nc23)c1` [Compound 26, 5-(5-((3,3-Difluoropyrrolidin-1-yl)methyl)pyridin-3-yl)-3-(4-(3-fluorophenyl)-1H-imidazo[4,5-c]pyridin-2-yl)-1H-pyrazolo[4,3-b]pyridine], the EC50 is greater than 10 µM in test [1], 1.24 µM in test [2] and 3.21 µM in test [3]. Further, in test [1], the inhibition at 10 µM turned out to be 0%.

For `O=C(CC1CCNCC1)Nc1cncc(-c2ccc3[nH]nc(-c4nc5c(-c6ccsc6)nccc5[nH]4)c3n2)c1` [Compound 673, 2-(Piperidin-4-yl)-N-(5-(3-(4-(thiophen-3-yl)-1H-imidazo[4,5-c]pyridin-2-yl)-1H-pyrazolo[4,3-b]pyridin-5-yl)pyridin-3-yl)acetamide], the values for the EC50 in test [1], in test [2] and in test [3] were greater than 10 µM, greater than 10 µM and 1.07 µM, respectively. Further, the results for the inhibition at 10 µM in test [1] and in test [2] were 40.5% and 6.6%, respectively.

As to `Cn1cc(-c2ccc3[nH]nc(-c4nc5c(-c6ccc7c(c6)OCO7)nccc5[nH]4)c3n2)c(CO)n1` [Compound 1151, (4-(3-(4-(Benzo[d][1,3]dioxol-5-yl)-1H-imidazo[4,5-c]pyridin-2-yl)-1H-pyrazolo [4,3-b]pyridin-5-yl)-1-methyl-1H-pyrazol-3-yl)methanol], the EC50 in test [1], in test [2] and in test [3] was greater than 10 µM each time. For the same molecule, the inhibition at 10 µM worked out at 0% in test [1], 3.7% in test [2] and 0% in test [3].

Values taken from US10195185B2, “3-(1H-imidazo[4,5-C]pyridin-2-yl)-1H-pyrazolo[4,3-B]pyridines and therapeutic uses thereof” (Samumed, LLC, priority 2015, dated 2019).
